In US20140128385A1 (NOVARTIS AG, priority 2011, published 2014):
Counter-ions that a name gives are not always drawn.

Target: T1, BACE-2 (Homo sapiens, UniProt Q9Y5Z0)
T1 construct: Recombinant BACE-2 (extracellular domain, expressed in baculovirus and purified using standard methods); made in house
T1 sequence (Q9Y5Z0 63-473 limits assumed): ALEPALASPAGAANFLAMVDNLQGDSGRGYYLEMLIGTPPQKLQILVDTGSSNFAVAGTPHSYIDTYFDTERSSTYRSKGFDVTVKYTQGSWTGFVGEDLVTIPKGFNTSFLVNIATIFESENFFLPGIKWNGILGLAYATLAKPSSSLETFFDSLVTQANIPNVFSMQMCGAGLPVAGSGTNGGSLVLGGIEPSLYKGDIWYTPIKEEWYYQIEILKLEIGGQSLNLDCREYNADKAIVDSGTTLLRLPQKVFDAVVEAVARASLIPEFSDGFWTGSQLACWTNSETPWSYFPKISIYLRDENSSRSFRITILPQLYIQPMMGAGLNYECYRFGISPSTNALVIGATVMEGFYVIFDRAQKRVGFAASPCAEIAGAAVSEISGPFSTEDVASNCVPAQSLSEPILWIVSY
Assay: assay for inhibition of BACE-2
Type: biochemical

| Structure (SMILES) | IC50 [nM] |
| --- | --- |
| NC1=NC(c2cccc(NC(=O)c3cc(Br)co3)c2)(C(F)F)COC1 (stereo not shown) [Example 102] | 240 |
| NC1=NC(c2cccc(NC(=O)c3ccc(O)nn3)c2)(C(F)F)COC1 (stereo not shown) [Example 103] | > 10000 |
| Cc1nc(C(=O)Nc2cccc(C3(C(F)F)COCC(N)=N3)c2)co1 (stereo not shown) [Example 104] | 309 |
| CCc1nc(C(=O)Nc2cccc(C3(C(F)F)COCC(N)=N3)c2)co1 (stereo not shown) [Example 105] | 1020 |
| Cc1nc(C(=O)Nc2cccc(C3(C(F)F)COCC(N)=N3)c2)c(C)o1 (stereo not shown) [Example 106] | 1040 |
| COc1cc(Br)cnc1C(=O)Nc1cccc(C2(C(F)F)COCC(N)=N2)c1 (stereo not shown) [Example 107] | 133 |
| NC1=NC(c2cccc(NC(=O)c3ncc(Br)cc3O)c2)(C(F)F)COC1 (stereo not shown) [Example 108] | 24 |
| COCCOc1cnc(C(=O)Nc2cccc(C3(C(F)F)COCC(N)=N3)c2)cn1 (stereo not shown) [Example 109] | > 10000 |
| NC1=NC(c2cccc(NC(=O)c3cnc(C(F)F)cn3)c2)(C(F)F)COC1 (stereo not shown) [Example 110] | 3550 |
| NC1=N[C@@](c2cc(NC(=O)c3ncc(F)cc3F)ccc2F)(C(F)F)COC1 [Example 113] | 29 |
| Cc1c(C(=O)Nc2ccc(F)c([C@]3(C(F)F)COCC(N)=N3)c2)oc2ccc(Br)cc12 [Example 114] | 116 |
| Cl.[2H]c1nc(C(=O)Nc2ccc(F)c([C@]3(C(F)F)COCC(N)=N3)c2)c(C([2H])([2H])[2H])c([2H])c1Cl [Example 115] | 3 |
| Cl.[2H]c1nc(C(=O)Nc2ccc(F)c([C@]3(C(F)F)COCC(N)=N3)c2)c(C([2H])([2H])[2H])c([2H])c1Br [Example 116] | 9 |
| NC1=N[C@@](c2cc(NC(=O)c3ncc(Br)cc3Cl)ccc2F)(C(F)F)COC1 [Example 117] | 13 |
| NC1=N[C@@](c2cc(NC(=O)c3ncc(Br)cc3O)ccc2F)(C(F)F)COC1 [Example 119] | 14 |
| NC1=N[C@@](c2cc(NC(=O)c3cnc(C(F)F)cn3)ccc2F)(C(F)F)COC1 [Example 122] | 514 |
| NC1=N[C@@](c2cc(NC(=O)c3cnc(OCC(F)F)cn3)ccc2F)(C(F)F)COC1 [Example 123] | 1830 |
| NC1=N[C@@](c2cc(NC(=O)c3cnc(OCC(F)(F)F)cn3)ccc2F)(C(F)F)COC1 [Example 124] | 1630 |
| NC1=N[C@@](c2cc(NC(=O)c3cc(Br)co3)ccc2F)(C(F)F)COC1 [Example 125] | 102 |
| NC1=N[C@@](c2cc(NC(=O)c3cc4ccccn4n3)ccc2F)(C(F)F)COC1 [Example 126] | 550 |

| Structure (SMILES) | IC50 [nM] |
| --- | --- |
| Cc1nc(C(=O)Nc2ccc(F)c([C@]3(C(F)F)COCC(N)=N3)c2)co1 [Example 127] | 35 |
| Cc1nc(C(=O)Nc2ccc(F)c([C@]3(C(F)F)COCC(N)=N3)c2)c(C)o1 [Example 128] | 95 |
| NC1=N[C@@](c2cc(NC(=O)c3cn4ccccc4n3)ccc2F)(C(F)F)COC1 [Example 129] | 1630 |
| COc1cc(Br)cnc1C(=O)Nc1ccc(F)c([C@]2(C(F)F)COCC(N)=N2)c1 [Example 130] | 42 |
| CCc1nc(C(=O)Nc2ccc(F)c([C@]3(C(F)F)COCC(N)=N3)c2)co1 [Example 131] | 67 |
| Cn1ccnc1C(=O)Nc1ccc(F)c([C@]2(C(F)F)COCC(N)=N2)c1 [Example 133] | 573 |
| NC1=N[C@@](c2cc(NC(=O)c3ccc(O)nn3)ccc2F)(C(F)F)COC1 [Example 134] | 844 |
| COCCOc1cnc(C(=O)Nc2ccc(F)c([C@]3(C(F)F)COCC(N)=N3)c2)cn1 [Example 135] | 1090 |
| NC1=N[C@@](c2cc(NC(=O)c3cnc(OCCF)cn3)ccc2F)(C(F)F)COC1 [Example 136] | 1140 |
| Cc1cc(C(=O)Nc2ccc(F)c([C@]3(C(F)F)COCC(N)=N3)c2)n[nH]1 [Example 142] | 522 |
| Cc1cc(C#N)cnc1C(=O)Nc1ccc(F)c([C@]2(C(F)F)COCC(N)=N2)c1 [Example 144] | 51 |
| Cl.[2H]c1nc(C(=O)Nc2ccc(F)c([C@]3(C(F)F)COCC(N)=N3)c2)c(C([2H])([2H])[2H])c([2H])c1C#N [Example 147] | 165 |
| Cc1nc(C(=O)Nc2ccc(F)c([C@]3(C(F)F)COCC(N)=N3)c2)cs1 [Example 148] | 287 |
| Cc1cnc(C(=O)Nc2ccc(F)c([C@]3(C(F)F)COCC(N)=N3)c2)s1 [Example 149] | 476 |
| Cn1ccc(C(=O)Nc2ccc(F)c([C@]3(C(F)F)COCC(N)=N3)c2)n1 [Example 150] | 61 |
| Cn1cc([N+](=O)[O-])c(C(=O)Nc2ccc(F)c([C@]3(C(F)F)COCC(N)=N3)c2)n1 [Example 151] | 376 |
| C[C@@]1(c2cc(NC(=O)c3ncc(Cl)cc3N)ccc2F)CO[C@@](C)(C(F)(F)F)C(N)=N1 [Example 153, 3-Amino-5-chloro-pyridine-2-carboxylic acid [3-((3R,6R)-5-amino-3,6-dimethyl-6-trifluoromethyl-3,6-dihydro-2H-[1,4]oxazin-3-yl)-4-fluoro-phenyl]-amide hydrochloride] | 3 |
| NC1=N[C@@](c2cc(NC(=O)c3cc4cncnc4[nH]3)ccc2F)(C(F)F)COC1 [Example 157, 7H-Pyrrolo[2,3-d]pyrimidine-6-carboxylic acid [3-((R)-5-amino-3-difluoromethyl-3,6-dihydro-2H-[1,4]oxazin-3-yl)-4-fluoro-phenyl]-amide hydrochloride] | > 10000 |
| COCCOc1cnc(C(=O)Nc2ccc(F)c([C@]3(C(F)F)COCC(N)=N3)c2)c(N)n1 [Example 158, 3-Amino-5-(2-methoxy-ethoxy)-pyrazine-2-carboxylic acid [3-((R)-5-amino-3-difluoromethyl-3,6-dihydro-2H-[1,4]oxazin-3-yl)-4-fluoro-phenyl]-amide] | 3380 |

Next, values leading:

| IC50 [nM] | Structure (SMILES) |
| --- | --- |
| 17 | CC1(c2cc(NC(=O)c3ccc(Cl)cn3)ccc2F)N=C(N)COCC1(F)F (stereo not shown) [Example 100, N-(3-(3-amino-6,6-difluoro-5-methyl-2,5,6,7-tetrahydro-1,4-oxazepin-5-yl)-4-fluorophenyl)-5-chloropicolinamide] |
| 26 | CC1(c2cc(NC(=O)c3ccc(Br)cn3)ccc2F)N=C(N)COCC1(F)F (stereo not shown) [Example 101] |
| 7 | NC1=N[C@@](c2cc(NC(=O)c3ncc(Cl)cc3Cl)ccc2F)(C(F)F)COC1 [Example 111] |
| 97 | N#Cc1ccc(C(=O)Nc2ccc(F)c([C@]3(C(F)F)COCC(N)=N3)c2)nc1 [Example 112, 5-Cyano-pyridine-2-carboxylic acid [3-((R)-5-amino-3-difluoromethyl-3,6-dihydro-2H-[1,4]oxazin-3-yl)-4-fluoro-phenyl]-amide hydrochloride] |
| 11 | NC1=N[C@@](c2cc(NC(=O)c3ccc(Br)cn3)ccc2F)(C(F)F)COC1 [Example 118] |
| 1060 | CCOc1ccc(C(=O)Nc2ccc(F)c([C@]3(C(F)F)COCC(N)=N3)c2)nc1 [Example 120] |
| 180 | NC1=N[C@@](c2cc(NC(=O)c3ccc(C(F)F)cn3)ccc2F)(C(F)F)COC1 [Example 132] |
| 18 | NC1=N[C@@](c2cc(NC(=O)c3ccc(Cl)cn3)ccc2F)(C(F)F)COC1 [Example 137] |
| 458 | NC1=N[C@@](c2cc(NC(=O)c3ccc(OC(F)F)cn3)ccc2F)(C(F)F)COC1 [Example 138] |
| 106 | NC1=N[C@@](c2cc(NC(=O)c3ccc(OCF)cn3)ccc2F)(C(F)F)COC1 [Example 139] |
| 15 | NC1=N[C@@](c2cc(NC(=O)c3ncc(Cl)cc3F)ccc2F)(C(F)F)COC1 [Example 140] |
| 43 | NC1=N[C@@](c2cc(NC(=O)c3cnc(Cl)cn3)ccc2F)(C(F)F)COC1 [Example 141] |
| 66 | Cc1ccc(C(=O)Nc2ccc(F)c([C@]3(C(F)F)COCC(N)=N3)c2)nc1 [Example 143] |
| 697 | NC1=N[C@@](c2cc(NC(=O)c3cnc(O)cn3)ccc2F)(C(F)F)COC1 [Example 145] |
| 408 | CC1(c2cc(NC(=O)c3ncc(C(F)(F)F)cc3Cl)ccc2F)N=C(N)COCC1(F)F (stereo not shown) [Example 154, 3-Chloro-5-trifluoromethyl-pyridine-2-carboxylic acid [3-(3-amino-6,6-difluoro-5-methyl-2,5,6,7-tetrahydro-[1,4]oxazepin-5-yl)-4-fluoro-phenyl]-amide] |
| 43 | COc1cc(Br)cnc1C(=O)Nc1ccc(F)c(C2(C)N=C(N)COCC2(F)F)c1 (stereo not shown) [Example 155, 5-Bromo-3-methoxy-pyridine-2-carboxylic acid [3-(3-amino-6,6 difluoro-5-methyl-2,5,6,7 tetrahydro-[1,4]oxazepin-5-yl)-4 fluoro-phenyl]-amide] |
| 90 | CC1(c2cc(NC(=O)c3ccc(C#N)cn3)ccc2F)N=C(N)COCC1(F)F (stereo not shown) [Example 156, 5-Cyano-pyridine-2-carboxylic acid [3-(3-amino-6,6-difluoro-5 methyl-2,5,6,7-tetrahydro[1,4]oxazepin-5-yl)-4 fluoro-phenyl]-amide] |
| 119 | CCc1ccc(C(=O)Nc2ccc(F)c([C@]3(C(F)F)COCC(N)=N3)c2)nc1 [Example 159, hydrochloride] |
| 8 | NC1=N[C@@](c2cc(NC(=O)c3ncc(Cl)cc3N)ccc2F)(C(F)F)COC1 [Example 160, 3-Amino-5-chloro-pyridine-2-carboxylic acid [3-((R)-5-amino-3-difluoromethyl-3,6-dihydro-2H-[1,4]oxazin-3-yl)-4-fluoro-phenyl]-amide hydrochloride] |
